Laboratory results published in publication PMC2775898 (The EMBO Journal, 2009).
Where a SMILES comes first, the peptide text is derived from it. The star is where a group is joined. Biotin = O=C1N[C@H]2[C@H](CS[C@H]2CCCCC(=O)*)N1

biological target: T1, Tiam2 PHCCEx domain (Mus musculus, UniProt Q6ZPF3); assay: Equilibrium SPR binding of biotinylated peptides to the Tiam2 PHCCEx domain; conditions: N-terminal biotinylated peptide immobilized
T1 sequence (Q6ZPF3 500-757): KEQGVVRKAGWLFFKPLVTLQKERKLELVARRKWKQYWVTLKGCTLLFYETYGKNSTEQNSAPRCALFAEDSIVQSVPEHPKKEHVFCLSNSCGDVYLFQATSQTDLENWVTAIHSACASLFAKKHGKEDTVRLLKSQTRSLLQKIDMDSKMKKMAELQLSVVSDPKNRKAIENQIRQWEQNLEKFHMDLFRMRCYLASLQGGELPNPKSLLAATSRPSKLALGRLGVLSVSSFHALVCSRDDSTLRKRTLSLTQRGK

| Compound | Binding to the Tiam2 PHCCEx domain (in words) |
| --- | --- |
| CC[C@H](C)[C@H](NC(=O)[C@@H](NC(=O)[C@H](CC(=O)O)NC(=O)[C@H](CO)NC(=O)[C@@H]1CCCN1C(=O)[C@H](CCC(=O)O)NC(=O)[C@H](CO)NC(=O)CNC(=O)[C@H](CC(N)=O)NC(=O)CCCC[C@@H]1SC[C@@H]2NC(=O)N[C@@H]21)C(C)C)C(=O)N[C@H](C(=O)N1CCC[C@H]1C(=O)N[C@@H](CC(C)C)C(=O)N[C@@H](CCCNC(=N)N)C(=O)N[C@H](C(=O)N[C@@H](C)C(=O)N[C@@H](CC(=O)O)C(=O)N[C@@H](CO)C(=O)N[C@H](C(=O)N[C@@H](Cc1ccccc1)C(=O)O)C(C)C)[C@@H](C)O)[C@@H](C)CC [ephrin B2 285–302] (Biotin-NGSEPSDVIIPLRTADSVF-OH; C-terminus assumed) | in the micromolar range |
| CC[C@H](C)[C@H](NC(=O)CNC(=O)[C@H](CC(C)C)NC(=O)[C@H](CCC(=O)O)NC(=O)CNC(=O)[C@@H]1CCCN1C(=O)[C@H](CCC(=O)O)NC(=O)[C@H](C)NC(=O)[C@H](CCC(=O)O)NC(=O)[C@H](CCCNC(=N)N)NC(=O)CCCC[C@@H]1SC[C@@H]2NC(=O)N[C@@H]21)C(=O)N[C@@H](C)C(=O)N[C@@H](CC(C)C)C(=O)N[C@@H](CCCNC(=N)N)C(=O)NCC(=O)NCC(=O)NCC(=O)N[C@H](C(=O)N[C@@H](C)C(=O)N[C@@H](CC(=O)O)C(=O)O)[C@@H](C)O [ephrin B3 286–303] (Biotin-REAEPGELGIALRGGGTAD-OH; C-terminus assumed) | weaker binding |
| CC[C@H](C)[C@H](NC(=O)[C@H](CC(=O)O)NC(=O)[C@H](CO)NC(=O)[C@@H]1CCCN1C(=O)[C@H](CCC(=O)O)NC(=O)[C@@H](NC(=O)CNC(=O)[C@H](C)NC(=O)CCCC[C@@H]1SC[C@@H]2NC(=O)N[C@@H]21)[C@@H](C)O)C(=O)N[C@H](C(=O)N[C@H](C(=O)N1CCC[C@H]1C(=O)N[C@@H](CC(C)C)C(=O)N[C@@H](CCCNC(=N)N)C(=O)N[C@H](C(=O)N[C@H](C(=O)N[C@@H](CCC(=O)O)C(=O)N[C@@H](CC(N)=O)C(=O)N[C@@H](CC(N)=O)C(=O)N[C@@H](Cc1ccc(O)cc1)C(=O)O)[C@@H](C)O)[C@@H](C)O)[C@@H](C)CC)[C@@H](C)CC [ephrin B1 294–312] (Biotin-AGTEPSDIIIPLRTTENNY-OH; C-terminus assumed) | in the micromolar range |
